In general, mass density refers to the mass of a sample divided by its volume. What is called vapor or sublimation pressure is the pressure of vapour in equilibrium with the condensed phase. By refractive index is commonly meant a measure of how strongly the sample bends light.

For series [1] the following is noted: Liquid; for mass density: 101.33 kPa.
Series [2] can be described thus: refractive index (Na D-line) (dimensionless). To be noted: 101.33 kPa, Liquid, Standard Abbe refractometry.

Numbers after ± are expanded uncertainties.

Regarding `N#Cc1cnccn1` [2-cyanopyrazine], the mass density in series [1] (293.15 K) was 1174 ± 1.8 kg/m3. Moreover, the “vapor or sublimation pressure” value in series [1] (476.15 K) was found to be 95.1 ± 5 kPa. The refractive index in series [2] (293.15 K) is 1.534 ± 0.0007.

As to `COc1ccccc1` [anisole], the mass density in series [1] (298.15 K) stood at 989.3 ± 1.5 kg/m3. Moreover, in series [1] (424.45 K), the “vapor or sublimation pressure” value came to 95.1 ± 5 kPa. Further, the refractive index in series [2] (298.15 K) was 1.5142 ± 0.0007.

With `CCC(C)=O` [butanone], the mass density in series [1] (298.15 K) is listed as 799.8 ± 1.2 kg/m3. In addition, the “vapor or sublimation pressure” value in series [1] (350.95 K) is listed as 95.1 ± 5 kPa. Besides, the refractive index in series [2] (298.15 K) came to 1.3769 ± 0.0007.

For the compound `CCCCCCCCCC` [decane], the mass density in series [1] (298.15 K) was found to be 726.4 ± 1 kg/m3. In series [1] (444.95 K), the “vapor or sublimation pressure” value was determined as 95.1 ± 5 kPa. The refractive index in series [2] (298.15 K) worked out at 1.4097 ± 0.0007.

Turning to `CC(C)OC(C)C` [diisopropyl ether], the mass density in series [1] (298.15 K) came out at 718.5 ± 1 kg/m3. Further, in series [1] (339.65 K), the “vapor or sublimation pressure” value is on record as 95.1 ± 5 kPa. Also, in series [2] (298.15 K), the refractive index was 1.3654 ± 0.0007.

For the compound `CN(C)C=O` [dimethylformamide], in series [1] (298.15 K), the mass density was determined as 943.9 ± 1.4 kg/m3. The “vapor or sublimation pressure” value in series [1] (420.85 K) and in series [1] (420.95 K) was 95.1 ± 5 kPa throughout. In addition, in series [2] (298.15 K), the refractive index amounted to 1.4282 ± 0.0007.

Consider `CCCCCCCC` [octane], for which the mass density in series [1] (298.15 K) is 698.6 ± 1 kg/m3. Further, in series [1] (391.15 K), the “vapor or sublimation pressure” value was determined as 95.1 ± 5 kPa.

Values taken from the NIST ThermoML archive (doi:10.1016/j.fluid.2007.02.026).
